Source: ChEMBL document CHEMBL5291721, “A preclinical secondary pharmacology resource illuminates target-adverse drug reaction associations of marketed drugs” (Nat Commun, 2023)

Key:
Androgen receptor = target: T1, Androgen receptor (Homo sapiens, UniProt P10275)
T1 sequence (P10275 whole entry): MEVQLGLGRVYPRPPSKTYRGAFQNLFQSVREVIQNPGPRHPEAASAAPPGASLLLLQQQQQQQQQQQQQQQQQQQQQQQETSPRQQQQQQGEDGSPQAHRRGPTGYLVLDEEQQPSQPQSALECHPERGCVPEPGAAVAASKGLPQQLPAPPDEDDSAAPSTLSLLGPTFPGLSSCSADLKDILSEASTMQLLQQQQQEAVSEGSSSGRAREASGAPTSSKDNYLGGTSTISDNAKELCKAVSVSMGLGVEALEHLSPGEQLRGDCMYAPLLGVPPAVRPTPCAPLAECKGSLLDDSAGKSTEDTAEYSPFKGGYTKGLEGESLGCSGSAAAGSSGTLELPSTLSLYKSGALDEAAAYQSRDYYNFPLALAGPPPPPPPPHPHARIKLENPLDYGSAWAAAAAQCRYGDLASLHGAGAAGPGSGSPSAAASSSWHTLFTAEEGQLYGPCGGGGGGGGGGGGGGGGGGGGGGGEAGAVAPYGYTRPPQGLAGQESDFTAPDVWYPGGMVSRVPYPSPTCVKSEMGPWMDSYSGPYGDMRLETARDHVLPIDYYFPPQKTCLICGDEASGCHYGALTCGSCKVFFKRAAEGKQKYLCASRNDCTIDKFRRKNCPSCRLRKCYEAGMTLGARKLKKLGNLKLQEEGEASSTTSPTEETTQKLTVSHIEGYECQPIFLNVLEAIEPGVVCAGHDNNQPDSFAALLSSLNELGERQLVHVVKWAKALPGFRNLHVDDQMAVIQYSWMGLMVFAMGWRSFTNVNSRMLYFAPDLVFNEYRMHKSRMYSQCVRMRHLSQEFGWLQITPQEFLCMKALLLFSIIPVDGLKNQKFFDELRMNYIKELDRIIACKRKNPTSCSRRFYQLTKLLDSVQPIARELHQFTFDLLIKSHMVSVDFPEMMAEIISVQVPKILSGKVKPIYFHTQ

[1] = target: T2, Corticotropin-releasing factor receptor 1 (Homo sapiens, UniProt P34998)
T2 sequence (P34998 whole entry): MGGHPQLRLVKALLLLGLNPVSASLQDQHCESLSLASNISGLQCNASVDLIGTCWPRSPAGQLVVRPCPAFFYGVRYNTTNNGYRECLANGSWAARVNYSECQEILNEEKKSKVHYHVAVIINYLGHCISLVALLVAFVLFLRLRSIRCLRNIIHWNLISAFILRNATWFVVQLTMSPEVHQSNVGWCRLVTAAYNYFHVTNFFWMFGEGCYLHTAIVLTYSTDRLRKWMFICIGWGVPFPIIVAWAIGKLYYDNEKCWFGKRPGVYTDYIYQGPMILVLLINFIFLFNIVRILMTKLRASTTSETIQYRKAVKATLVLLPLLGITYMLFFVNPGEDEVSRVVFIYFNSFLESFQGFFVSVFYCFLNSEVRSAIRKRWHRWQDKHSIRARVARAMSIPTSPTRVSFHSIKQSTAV

[2] = target: T3, Corticotropin-releasing factor receptor 2 (Homo sapiens, UniProt Q13324)
T3 sequence (Q13324 whole entry): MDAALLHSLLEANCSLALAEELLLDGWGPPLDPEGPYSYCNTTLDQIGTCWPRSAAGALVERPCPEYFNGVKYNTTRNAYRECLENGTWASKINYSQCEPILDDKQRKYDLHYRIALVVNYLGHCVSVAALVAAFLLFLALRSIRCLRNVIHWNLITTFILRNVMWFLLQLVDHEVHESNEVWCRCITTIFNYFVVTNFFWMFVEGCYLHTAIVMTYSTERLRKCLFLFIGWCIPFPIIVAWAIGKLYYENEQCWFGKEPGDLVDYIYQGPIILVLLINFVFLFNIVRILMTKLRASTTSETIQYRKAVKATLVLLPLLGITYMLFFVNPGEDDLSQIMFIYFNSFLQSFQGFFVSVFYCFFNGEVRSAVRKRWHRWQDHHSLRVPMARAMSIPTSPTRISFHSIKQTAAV

[3] = target: Epidermal growth factor receptor (Homo sapiens, UniProt P00533); format: functional
Chain of Epidermal growth factor receptor (P00533 whole entry): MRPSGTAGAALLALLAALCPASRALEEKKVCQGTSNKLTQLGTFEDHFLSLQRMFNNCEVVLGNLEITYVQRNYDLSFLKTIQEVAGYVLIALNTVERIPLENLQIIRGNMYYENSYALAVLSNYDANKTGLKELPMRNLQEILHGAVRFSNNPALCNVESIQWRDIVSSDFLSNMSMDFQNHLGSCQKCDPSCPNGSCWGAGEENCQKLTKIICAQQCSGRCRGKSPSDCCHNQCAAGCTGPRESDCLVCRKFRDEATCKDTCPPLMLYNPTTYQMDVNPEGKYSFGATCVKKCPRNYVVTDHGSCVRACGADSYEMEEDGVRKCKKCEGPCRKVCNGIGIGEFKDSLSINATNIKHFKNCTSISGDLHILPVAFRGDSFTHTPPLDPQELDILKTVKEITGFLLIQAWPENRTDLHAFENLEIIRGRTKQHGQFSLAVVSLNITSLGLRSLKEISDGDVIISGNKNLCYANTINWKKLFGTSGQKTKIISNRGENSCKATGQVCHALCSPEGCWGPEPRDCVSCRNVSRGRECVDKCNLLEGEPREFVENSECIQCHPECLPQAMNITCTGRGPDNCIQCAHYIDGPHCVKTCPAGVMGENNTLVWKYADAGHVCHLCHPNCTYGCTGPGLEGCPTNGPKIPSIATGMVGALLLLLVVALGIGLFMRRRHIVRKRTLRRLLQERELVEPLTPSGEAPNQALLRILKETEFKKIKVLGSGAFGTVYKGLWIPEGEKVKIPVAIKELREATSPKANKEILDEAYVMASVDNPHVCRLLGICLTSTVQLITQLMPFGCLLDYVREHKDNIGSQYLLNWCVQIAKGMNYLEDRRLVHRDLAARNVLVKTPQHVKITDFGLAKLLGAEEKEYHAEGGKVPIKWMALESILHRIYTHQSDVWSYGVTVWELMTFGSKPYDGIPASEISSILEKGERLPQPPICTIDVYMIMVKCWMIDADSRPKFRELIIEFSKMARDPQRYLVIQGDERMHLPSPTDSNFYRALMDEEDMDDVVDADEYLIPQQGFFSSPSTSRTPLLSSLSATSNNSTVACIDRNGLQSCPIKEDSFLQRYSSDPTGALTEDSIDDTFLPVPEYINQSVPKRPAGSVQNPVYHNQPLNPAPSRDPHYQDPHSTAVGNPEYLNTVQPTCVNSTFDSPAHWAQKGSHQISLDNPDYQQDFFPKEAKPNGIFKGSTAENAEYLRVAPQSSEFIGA

Estrogen receptor beta = Estrogen receptor beta (Homo sapiens, UniProt Q92731)
Chain of Estrogen receptor beta (Q92731 whole entry): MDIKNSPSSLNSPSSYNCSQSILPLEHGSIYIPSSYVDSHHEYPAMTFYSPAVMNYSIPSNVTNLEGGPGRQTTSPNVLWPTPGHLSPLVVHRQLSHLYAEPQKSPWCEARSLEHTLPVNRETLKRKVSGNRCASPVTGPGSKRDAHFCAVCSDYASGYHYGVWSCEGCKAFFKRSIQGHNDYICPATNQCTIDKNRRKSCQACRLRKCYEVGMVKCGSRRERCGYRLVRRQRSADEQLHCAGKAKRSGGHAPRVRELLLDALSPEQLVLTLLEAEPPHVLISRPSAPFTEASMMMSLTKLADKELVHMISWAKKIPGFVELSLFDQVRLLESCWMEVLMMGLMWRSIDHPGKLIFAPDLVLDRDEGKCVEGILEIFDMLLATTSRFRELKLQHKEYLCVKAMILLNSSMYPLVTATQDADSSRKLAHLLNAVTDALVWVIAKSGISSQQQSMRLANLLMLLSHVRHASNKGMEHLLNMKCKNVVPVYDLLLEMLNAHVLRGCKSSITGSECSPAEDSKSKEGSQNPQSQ

[4] = target: Gamma-aminobutyric acid receptor subunit alpha-1/alpha-2/beta-2/gamma-2 (Homo sapiens, UniProt P14867+P18507+P47869+P47870); format: functional, cell-based
Chain of Gamma-aminobutyric acid receptor subunit alpha-1/alpha-2/beta-2/gamma-2 (P14867 whole entry): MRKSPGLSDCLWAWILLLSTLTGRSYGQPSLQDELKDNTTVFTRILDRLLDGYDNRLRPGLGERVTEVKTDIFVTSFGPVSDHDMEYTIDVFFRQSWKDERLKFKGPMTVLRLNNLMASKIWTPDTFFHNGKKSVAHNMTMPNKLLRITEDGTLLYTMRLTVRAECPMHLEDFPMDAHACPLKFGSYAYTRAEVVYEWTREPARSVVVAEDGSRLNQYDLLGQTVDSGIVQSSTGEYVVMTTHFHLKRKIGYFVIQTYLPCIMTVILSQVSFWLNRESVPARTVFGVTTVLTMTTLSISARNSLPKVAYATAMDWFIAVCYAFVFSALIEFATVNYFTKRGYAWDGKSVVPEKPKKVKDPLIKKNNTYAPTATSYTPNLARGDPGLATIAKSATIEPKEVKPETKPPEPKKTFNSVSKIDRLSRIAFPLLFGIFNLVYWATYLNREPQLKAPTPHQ
Chain of Gamma-aminobutyric acid receptor subunit alpha-1/alpha-2/beta-2/gamma-2 (P47870 whole entry): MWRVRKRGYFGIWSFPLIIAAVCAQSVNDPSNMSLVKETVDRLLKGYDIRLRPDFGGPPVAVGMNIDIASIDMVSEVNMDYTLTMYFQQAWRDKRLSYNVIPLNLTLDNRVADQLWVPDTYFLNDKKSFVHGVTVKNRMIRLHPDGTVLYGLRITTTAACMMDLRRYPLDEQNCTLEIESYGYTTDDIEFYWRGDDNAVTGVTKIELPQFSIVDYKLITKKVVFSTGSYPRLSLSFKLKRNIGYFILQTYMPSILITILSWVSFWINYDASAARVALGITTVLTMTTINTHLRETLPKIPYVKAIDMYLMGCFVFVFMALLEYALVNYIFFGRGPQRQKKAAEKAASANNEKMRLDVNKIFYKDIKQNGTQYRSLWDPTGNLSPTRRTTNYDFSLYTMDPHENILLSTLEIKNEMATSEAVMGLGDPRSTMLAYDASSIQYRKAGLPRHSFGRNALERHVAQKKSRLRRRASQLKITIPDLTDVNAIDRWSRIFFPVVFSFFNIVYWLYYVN
Chain of Gamma-aminobutyric acid receptor subunit alpha-1/alpha-2/beta-2/gamma-2 (P18507 whole entry): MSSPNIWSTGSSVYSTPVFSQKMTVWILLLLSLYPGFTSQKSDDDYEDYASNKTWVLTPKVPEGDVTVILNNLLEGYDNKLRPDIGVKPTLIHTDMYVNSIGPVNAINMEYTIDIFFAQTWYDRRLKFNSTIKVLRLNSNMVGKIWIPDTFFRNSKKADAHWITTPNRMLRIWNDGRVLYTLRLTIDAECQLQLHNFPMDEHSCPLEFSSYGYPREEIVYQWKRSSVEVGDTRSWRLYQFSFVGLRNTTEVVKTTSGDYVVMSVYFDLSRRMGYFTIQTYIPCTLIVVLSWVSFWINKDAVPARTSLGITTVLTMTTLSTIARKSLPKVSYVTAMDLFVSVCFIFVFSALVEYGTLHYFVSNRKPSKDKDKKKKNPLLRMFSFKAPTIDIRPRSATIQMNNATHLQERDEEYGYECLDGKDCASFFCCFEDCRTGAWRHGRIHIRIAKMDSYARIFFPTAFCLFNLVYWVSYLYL
Chain of Gamma-aminobutyric acid receptor subunit alpha-1/alpha-2/beta-2/gamma-2 (P47869 whole entry): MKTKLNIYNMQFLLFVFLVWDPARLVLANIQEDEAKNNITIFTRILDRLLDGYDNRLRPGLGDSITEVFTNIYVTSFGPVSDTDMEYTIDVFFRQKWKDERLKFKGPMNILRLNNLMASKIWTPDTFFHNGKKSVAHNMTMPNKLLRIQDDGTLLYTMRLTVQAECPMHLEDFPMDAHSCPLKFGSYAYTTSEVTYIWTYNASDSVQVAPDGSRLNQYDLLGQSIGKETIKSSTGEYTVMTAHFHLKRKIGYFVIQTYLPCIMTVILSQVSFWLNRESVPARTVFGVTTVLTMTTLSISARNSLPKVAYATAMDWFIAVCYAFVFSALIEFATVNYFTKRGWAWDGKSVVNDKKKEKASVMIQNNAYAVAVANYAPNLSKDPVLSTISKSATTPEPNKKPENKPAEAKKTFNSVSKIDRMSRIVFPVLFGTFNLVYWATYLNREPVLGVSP

Glucagon receptor = Glucagon receptor (Homo sapiens, UniProt P47871)
Chain of Glucagon receptor (P47871 whole entry): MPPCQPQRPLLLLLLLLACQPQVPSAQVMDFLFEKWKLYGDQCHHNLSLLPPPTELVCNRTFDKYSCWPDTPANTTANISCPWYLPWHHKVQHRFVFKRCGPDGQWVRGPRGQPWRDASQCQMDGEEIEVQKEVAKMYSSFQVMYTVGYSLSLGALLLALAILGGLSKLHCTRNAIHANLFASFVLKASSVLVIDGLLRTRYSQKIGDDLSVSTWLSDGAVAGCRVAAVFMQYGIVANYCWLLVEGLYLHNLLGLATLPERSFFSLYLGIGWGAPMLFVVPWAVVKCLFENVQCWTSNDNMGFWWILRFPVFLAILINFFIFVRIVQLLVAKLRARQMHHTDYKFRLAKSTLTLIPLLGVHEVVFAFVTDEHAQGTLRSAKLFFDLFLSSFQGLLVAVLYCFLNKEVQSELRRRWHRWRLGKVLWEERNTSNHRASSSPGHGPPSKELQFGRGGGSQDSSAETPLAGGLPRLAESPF

[5] = target: T4, Peroxisome proliferator-activated receptor gamma (Homo sapiens, UniProt P37231); format: functional
T4 sequence (P37231 whole entry): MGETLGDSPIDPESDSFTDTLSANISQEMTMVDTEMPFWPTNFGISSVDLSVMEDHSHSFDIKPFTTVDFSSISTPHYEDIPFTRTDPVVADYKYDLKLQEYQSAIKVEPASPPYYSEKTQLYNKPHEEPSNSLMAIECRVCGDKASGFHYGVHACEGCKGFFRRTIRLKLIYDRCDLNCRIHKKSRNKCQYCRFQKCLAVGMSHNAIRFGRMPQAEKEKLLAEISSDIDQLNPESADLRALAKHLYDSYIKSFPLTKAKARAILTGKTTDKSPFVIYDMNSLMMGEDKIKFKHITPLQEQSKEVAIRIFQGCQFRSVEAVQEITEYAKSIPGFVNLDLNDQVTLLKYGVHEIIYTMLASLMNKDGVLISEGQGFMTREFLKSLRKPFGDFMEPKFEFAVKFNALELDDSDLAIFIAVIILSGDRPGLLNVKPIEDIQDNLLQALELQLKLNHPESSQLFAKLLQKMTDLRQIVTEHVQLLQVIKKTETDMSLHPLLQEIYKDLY
Note: assay procedure not described here.

Row | AC50 [1] | AC50 [2] | AC50 (Estrogen receptor beta) | AC50 (Glucagon receptor) | Structure (SMILES) | AC50 (Androgen receptor) | further results
1 |  |  |  |  | COCc1c(C(C)C)nc(C(C)C)c(/C=C/[C@@H](O)C[C@@H](O)CC(=O)O)c1-c1ccc(F)cc1 [CERIVASTATIN] | > 30 µM | 
2 | > 30 µM | > 30 µM | > 30 µM | > 30 µM | CCCN1C[C@H](CSC)C[C@@H]2c3cccc4[nH]cc(c34)C[C@H]21 [PERGOLIDE] |  | AC50 [3]: > 30 µM; AC50 [4]: > 30 µM; AC50 [5]: > 30 µM
3 |  |  |  |  | CC[C@H]1[C@@H](O)[C@@H]2[C@H](CC[C@]3(C)[C@@H]([C@H](C)CCC(=O)O)CC[C@@H]23)[C@@]2(C)CC[C@@H](O)C[C@@H]12 [OBETICHOLIC ACID] | > 30 µM | 
4 | > 30 µM | > 30 µM |  | > 30 µM | CN(C)CCC(c1ccc(Cl)cc1)c1ccccn1 (stereo unspecified) [CHLORPHENIRAMINE] |  | 
5 |  |  |  |  | CCC1=C(C)CN(C(=O)NCCc2ccc(S(=O)(=O)NC(=O)N[C@H]3CC[C@H](C)CC3)cc2)C1=O [GLIMEPIRIDE] | > 30 µM | 
6 |  |  |  |  | CC[N+]1(C)[C@@H]2CC(OC(=O)[C@H](CO)c3ccccc3)C[C@H]1[C@@H]1O[C@@H]12 (stereo partly specified) [OXITROPIUM] | > 30 µM | 
7 | > 30 µM | > 30 µM | > 30 µM | > 30 µM | CCC(C)n1ncn(-c2ccc(N3CCN(c4ccc(OCC5COC(Cn6cncn6)(c6ccc(Cl)cc6Cl)O5)cc4)CC3)cc2)c1=O (stereo unspecified) [ITRACONAZOLE] |  | 
8 |  |  |  |  | CN(C)[C@@H](c1cccc(O)c1)[C@H]1CCCC[C@H]1O [CIRAMADOL] | > 30 µM | 
9 |  |  |  |  | CC(C)Nc1ncccn1 [ISAXONINE] | > 30 µM | 
10 |  |  |  |  | COCCCN1CCC(NC(=O)c2cc(Cl)c(N)c3c2OCC3)CC1 [PRUCALOPRIDE] |  | AC50 [4]: > 30 µM; AC50 [5]: > 30 µM
11 | > 30 µM | > 30 µM | > 30 µM | > 30 µM | CCOC(=O)[C@H](CCc1ccccc1)N[C@@H](C)C(=O)N1[C@H](C(=O)O)C[C@@H]2CCC[C@@H]21 |  | 
12 |  |  |  |  | O=C(O)c1cc(O)ccc1O [GENTISIC ACID] | > 30 µM | 
13 |  |  |  |  | O=C1Nc2ccc(Cl)cc2[C@@](C#CC2CC2)(C(F)(F)F)O1 [EFAVIRENZ] |  | AC50 [5]: > 30 µM
14 | > 30 µM | > 30 µM | > 30 µM | > 30 µM | C[C@]12CCC(=O)C=C1CC[C@@H]1[C@@H]2[C@@H](O)C[C@@]2(C)[C@H]1CC[C@]2(O)C(=O)CO [HYDROCORTISONE] |  | 
15 |  |  |  |  | OCCN1C[C@H](O)[C@@H](O)[C@H](O)[C@H]1CO [MIGLITOL] | > 30 µM | 
16 |  |  |  |  | O=C(Cc1ccc(-c2ccccc2)cc1)Nc1ccccn1 [DIFENPIRAMIDE] | > 30 µM | AC50 [4]: > 30 µM

Row | Structure (SMILES) | AC50 [1] | AC50 [2] | AC50 (Estrogen receptor beta) | AC50 (Glucagon receptor) | AC50 (Androgen receptor) | further results
17 | CO[C@H]1C[C@@H]2CC[C@@H](C)[C@@](O)(O2)C(=O)C(=O)N2CCCC[C@H]2C(=O)O[C@H]([C@H](C)C[C@@H]2CC[C@@H](O)[C@H](OC)C2)CC(=O)[C@H](C)/C=C(\C)[C@@H](O)[C@@H](OC)C(=O)[C@H](C)C[C@H](C)/C=C/C=C/C=C/1C [SIROLIMUS] | > 30 µM | > 30 µM | > 30 µM | > 30 µM | > 30 µM | 
18 | CS(=O)(=O)c1ccc(C2=C(c3ccccc3)C(=O)OC2)cc1 [ROFECOXIB] | > 30 µM | > 30 µM | > 30 µM | > 30 µM |  | 
19 | Cc1cn([C@H]2C[C@H](N=[N+]=[N-])[C@@H](CO)O2)c(=O)[nH]c1=O [ZIDOVUDINE] | > 30 µM | > 30 µM |  | > 30 µM |  | 
20 | CC[C@H]1OC(=O)[C@H](C)[C@@H](O[C@H]2C[C@@](C)(OC)[C@@H](O)[C@H](C)O2)[C@H](C)[C@@H](O[C@@H]2O[C@H](C)C[C@H](N(C)C)[C@H]2O)[C@](C)(O)C[C@@H](C)CN(C)[C@H](C)[C@@H](O)[C@]1(C)O [AZITHROMYCIN] | > 30 µM | > 30 µM | > 30 µM | > 30 µM |  | 
